Assay results reported in patent US9546153B2, “Bicyclic heterocycle substituted pyridyl compounds useful as kinase modulators” (BRISTOL-MYERS SQUIBB COMPANY, priority 2012, dated 2017).
Where two headings read alike, the source gives them in different places.

Tests used:
[1] = system: TLR2 induced IL-6 in peripheral blood mononuclear cells (PBMCs); experiment: PBMC TLR2 Induced IL-6 Assay; type: cell-based, human; conditions: human PBMCs, 10 μg/ml lipoteichoic acid for 5 hours, IL-6 by ELISA; for IC50: value without asterisk, read-out: Cell IC50; for EC50: EC50 determinations are indicated with an asterisk, read-out: Cell EC50 (asterisk)
Summary of the method: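 Human PBMCs (250000 cells/well) in RPMI with 10% heat-inactivated FCS pre-treated with compound for 30 min at 37° C, then stimulated 5 h with 10 μg/ml lipoteichoic acid. Supernatant IL-6 measured by ELISA and reported as IC50 or EC50.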

[2] = target: IRAK4 (Homo sapiens (Human), UniProt Q9NWZ3); experiment: IRAK4 Inhibition Assay; type: biochemical; conditions: ATP 500 μM; IRAK4 0.6 nM; 60 min at room temperature
IRAK4, sequence (Q9NWZ3 whole entry, species assumed): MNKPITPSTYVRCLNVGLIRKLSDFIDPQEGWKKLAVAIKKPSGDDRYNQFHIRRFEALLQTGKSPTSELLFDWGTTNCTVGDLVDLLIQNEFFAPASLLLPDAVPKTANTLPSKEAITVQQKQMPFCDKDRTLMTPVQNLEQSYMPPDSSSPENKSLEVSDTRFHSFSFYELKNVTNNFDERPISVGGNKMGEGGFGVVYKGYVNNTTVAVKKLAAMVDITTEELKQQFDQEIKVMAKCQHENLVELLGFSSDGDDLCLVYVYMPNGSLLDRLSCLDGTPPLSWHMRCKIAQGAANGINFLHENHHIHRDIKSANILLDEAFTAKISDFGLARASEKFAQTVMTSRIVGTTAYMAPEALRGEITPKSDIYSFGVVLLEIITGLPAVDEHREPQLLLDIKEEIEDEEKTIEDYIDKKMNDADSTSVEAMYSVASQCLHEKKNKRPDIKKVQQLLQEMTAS
Protocol: The assays were performed in U-bottom 384-well plates. […] The reaction was initiated by the combination of IRAK4 with substrates and test compounds. The reaction was incubated at room temperature for 60 min. and terminated by adding 45 μL of 35 mM EDTA to each sample. The reaction mixture was analyzed on the Caliper LABCHIP® 3000 (Caliper, Hopkinton, Mass.) by electrophoretic separation of the fluorescent substrate and phosphorylated product.

Structure (SMILES) | IC50 [2] | IC50 ([1]; Homo sapiens, PBMC, 5 h) | IC50 [1] | EC50 ([1]; Homo sapiens, PBMC, 5 h)
CC(C)(O)[C@H](F)CNC(=O)c1cnc(Nc2cc3scnc3cc2F)cc1NC1CCCOC1 (some centres unmarked) [Example 517] | 6 nM | 1290 nM |  | 
CC(C)(O)[C@H](F)CNC(=O)c1cnc(Nc2cc3scnc3cc2F)cc1NC1CCCOC1 (some centres unmarked) [Example 518] | 3.8 nM |  | 1840 nM | 
CC(C)(O)[C@H](F)CNC(=O)c1cnc(Nc2nc3scnc3cc2F)cc1NCC(F)(F)F [Example 519] | 2.2 nM | 634 nM |  | 
CC(C)(O)[C@H](F)CNC(=O)c1cnc(Nc2cc3scnc3cc2F)cc1NC1CCOCC1 [Example 520] | 2.5 nM | 1060 nM |  | 
CC(C)Nc1cc(Nc2ccc3ncsc3c2)ncc1C(=O)NC1CCc2nc(N)sc2C1 (centres unmarked) [Example 521] | 8.5 nM | 2330 nM |  | 

Second part, led by results:

IC50 [2] | Structure (SMILES) | IC50 ([1]; Homo sapiens, PBMC, 5 h) | IC50 [1] | EC50 ([1]; Homo sapiens, PBMC, 5 h)
5.4 nM | CC(C)Nc1cc(Nc2ccc3ncsc3c2)ncc1C(=O)N[C@H]1CC[C@H]([N+](=O)[O-])CC1 [Example 523, 6-(benzo[d]thiazol-6-ylamino)-4-(isopropylamino)-N-((trans)-4-nitrocyclohexyl)nicotinamide] |  |  | 365 nM
3.7 nM | CC(C)Nc1cc(Nc2ccc3ncsc3c2)ncc1C(=O)NC1CCC(O)(c2ccnn2C)CC1 (centres unmarked) [Example 524] |  |  | 75 nM
1.5 nM | CC(C)Nc1cc(Nc2ccc3ncsc3c2)ncc1C(=O)NC1CCC2(CC1)NC(=O)NC2=O (centres unmarked) [Example 525, 6-(benzo[d]thiazol-6-ylamino)-N-(2,4-dioxo-1,3-diazaspiro[4.5]decan-8-yl)-4-(isopropylamino)nicotinamide] |  |  | 131 nM
6.6 nM | CC(C)Nc1cc(Nc2ccc3ncsc3c2)ncc1C(=O)NC1CCC(=O)CC1 [Example 526, 6-(benzo[d]thiazol-6-ylamino)-4-(isopropylamino)-N-(4-oxocyclohexyl)nicotinamide] |  |  | 423 nM
7.7 nM | CC(C)Nc1cc(Nc2ccc3ncsc3c2)ncc1C(=O)NC1CCc2nnnn2CC1 (centres unmarked) [Example 527, 6-(benzo[d]thiazol-6-ylamino)-4-(isopropylamino)-N-(6,7,8,9-tetrahydro-5H-tetrazolo[1,5-a]azepin-7-yl)nicotinamide] |  |  | 320 nM
